Test results as given in patent publication US20060052435A1, “Selective dopamin d3 receptor agonists for the treatment of sexual dysfunction” (priority 2001, published 2006).

Legend:
anaesthetised dog [1] = assay: haemodynamics in the anaesthetised dog; assay type: in vivo; conditions: for effect on mean blood pressure / effect on total vascular resistance (TVR; TPR) / effect on cardiac output and heart rate: s.c., hydrochloride; for effect on mean blood pressure / effect on total vascular resistance (TVR; TPR): doses up to 3000 μg/kg
Description: Male beagles were anaesthetised with a mixture of chloralose and urethane, following pre-medication with piritramide. They were instrumented to measure arterial blood pressure, cardiac output, E.C.G., pudendal artery blood flow (PAF) and intra-cavernosal pressure (ICP). Other parameters such as heart rate and vascular resistance were derived from the primary signals. Following a period of equilibration, a series of control readings were taken and the effects of pelvic nerve stimulation at 4 and 8 Hz, on ICP and PAF were measured. Compounds were administered subcutaneously in the dorsal neck region via an implanted catheter, in the dose range of 0.3-3000 μg(base)/kg. Following each dose, parameters were measured at fixed intervals for 30 min.
Results were analysed as percent change from the final control values for each dog and mean values for three dogs were used.

telemetry rats = assay: rat telemetry model of erection (intracavernosal pressure); assay type: in vivo
Procedure: Erectile responses were recorded by measuring intracavernosal pressure and/or clitoral/vaginal blood flow using surgically implanted telemetric device. The specific details of the surgical procedures, data acquisition and analysis can be found in detail in Bernabe J, Rampin O, Sachs B D, Giuliano F. Intracavernous pressure during erection in rats: an integrative approach based on telemetric recording. Am. J. Physiol.

[2] = molecular target: human dopamine D2 long receptor (Homo sapiens, UniProt P14416)
Sequence of human dopamine D2 long receptor (P14416 whole entry): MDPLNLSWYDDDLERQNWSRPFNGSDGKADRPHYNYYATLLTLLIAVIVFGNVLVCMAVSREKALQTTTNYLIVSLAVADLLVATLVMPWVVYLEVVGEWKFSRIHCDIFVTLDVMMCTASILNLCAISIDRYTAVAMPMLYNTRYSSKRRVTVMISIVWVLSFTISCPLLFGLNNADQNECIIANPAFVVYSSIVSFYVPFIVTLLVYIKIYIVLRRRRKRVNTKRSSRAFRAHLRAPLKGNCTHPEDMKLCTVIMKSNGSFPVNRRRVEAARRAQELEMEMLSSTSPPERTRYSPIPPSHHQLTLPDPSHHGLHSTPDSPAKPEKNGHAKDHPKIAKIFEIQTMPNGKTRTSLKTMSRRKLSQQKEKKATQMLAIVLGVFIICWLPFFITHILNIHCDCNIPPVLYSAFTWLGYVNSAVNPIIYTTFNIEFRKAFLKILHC

[3] = emesis in the chloralose anaesthetised dog; conditions: male, beagle, dog, in vivo, 3000 μg kg^−1
Procedure: (§1) Male beagles, 11-17 kg were used. Following an overnight fast, animals were anaesthetised with chloralose (80 mg kg^−1 i.v.), having first been injected with an anaesthetic dose of the short acting barbiturate, thiopentone (15 mg kg^−1 i.v.). Following tracheal intubation, which ensured a patent airway even during the expulsion phase of the emetic response, the left femoral vein and artery were cannulated for further administration of anaesthetic and for recording haemodynamic parameters, respectively. […] During the stabilisation period, respiratory rate was monitored to ensure that central respiratory centres were not deeply depressed, since the CNS efferent component of the emetic reflex is essentially conveyed via respiratory motor neurones. […] Animals were observed closely for 30 min post-dose and motor (e.g. swallowing, eye blinking, limb movements, changes in respiratory rate and depth, retching and vomiting) and haemodynamic changes noted and recorded. […] At the end of an experiment animals were sacrificed with an overdose of pentobarbitone.
(§2) Observations made on individual animals were used to determine the percentage of animals that retched when injected with a particular dose level of test compound. Percentage of animals retching was then used to construct a dose response curve and an ED50 value determined from the appropriate curve.

anaesthetised dog [4] = assay: emesis in the chloralose anaesthetised dog
Procedure: as §1, §2

New Zealand rabbits = assay: male and female anaesthetised rabbit, pelvic nerve stimulation; assay type: in vivo
Procedure: 1.1.1 Male and Female Anaesthetised Rabbit Methodology
Male and female New Zealand rabbits (˜2.5 kg) were pre-medicated with a combination of Medetomidine (Domitor®) 0.5 ml/kg i.m., and Ketamine (Vetalar®) 0.25 ml/kg i.m. whilst maintaining oxygen intake via a face mask. The rabbits were tracheotomised using a Portex™ uncuffed endotracheal tube 3 ID., connected to ventilator and maintained at a ventilation rate of 30-40 breaths per minute, with an approximate tidal volume of 18-20 ml, and a maximum airway pressure of 10 cm H2O. Anaesthesia was then switched to Isoflurane and ventilation continued with O2 at 2 l/min. The right marginal ear vein was cannulated using a 23 G or 24 G catheter, and Lactated Ringer solution perfused at 0.5 ml/min. The rabbit was maintained at 3% Isoflurane during invasive surgery, dropping to 2% for maintenance anaesthesia. The left jugular vein was exposed, isolated and then cannulated with a PVC catheter (17 G) for the infusion of drugs and compounds.
The left groin area of the rabbit was shaved and a vertical incision was made approximately 5 cm in length along the thigh. The femoral vein and artery were exposed, isolated and then cannulated with a PVC catheter (17 G) for the infusion of drugs and compounds. Cannulation was repeated for the femoral artery, inserting the catheter to a depth of 10 cm to ensure that the catheter reached the abdominal aorta. This arterial catheter was linked to a Gould system to record blood pressure. Samples for blood gas analysis were also taken via the arterial catheter. Systolic and diastolic pressures were measured, and the mean arterial pressure calculated using the formula (diastolic×2+systolic)÷3. Heart rate was measured via the pulse oxymeter and Po-ne-mah data acquisition software system (Ponemah Physiology Platform, Gould Instrument Systems, Inc.).
A ventral midline incision was made into the abdominal cavity. The incision was about 5 cm in length just above the pubis. The fat and muscle was bluntly dissected away to reveal the hypogastric nerve which runs down the body cavity. It was essential to keep close to the side curve of the pubis wall in order to avoid damaging the femoral vein and artery which lie above the pubis. The sciatic and pelvic nerves lie deeper and were located after further dissection on the dorsal side of the rabbit. Once the sciatic nerve is identified, the pelvic nerve was easily located. The term pelvic nerve is loosely applied; anatomy books on the subject fail to identify the nerves in sufficient detail. However, stimulation of the nerve causes an increase in vaginal and clitoral blood flow in females and in intracavernosal pressure and cavernosal blood flow in males, and innervation of the pelvic region. […]

[5] = at 3000 μg/kg, haemodynamic study

CCCN1CCO[C@H](c2cccc(O)c2)C1.Cl [Example 8, R-(−)-3-(4-Propylmorpholin-2-yl)phenol hydrochloride]
free plasma concentration of the corresponding samples (anaesthetised dog [1]; [5]): 2700 nM | free plasma concentration relative to the D3 EC50 (anaesthetised dog [1]; [5]): approximately 270 fold | Geometric mean ED30 (fall in TPR) (anaesthetised dog [1]; dog, in vivo): No effect | effect on mean blood pressure (anaesthetised dog [1]): No significant effect | effect on total vascular resistance (TVR; TPR) (anaesthetised dog [1]): No significant effect | effect on mean blood pressure (anaesthetised dog [1]; listed as selective D3 agonist): no significant effects | effect on total vascular resistance (TVR; TPR) (anaesthetised dog [1]; listed as selective D3 agonist): no significant effects | effect on cardiac output and heart rate (anaesthetised dog [1]): no significant effect | effect on cardiac output and heart rate (anaesthetised dog [1]; listed as selective D3 agonist): no significant effects | erections/10 minutes in the telemetry rat (telemetry rats; 10 μg/kg s.c.): 2.25±0.25 erections/10 minutes | free plasma concentration at which prosexual effects were observed (telemetry rats; rat telemetry model, FIG. 1): circa 1 nM | EC50 [2]: 4.97 µM | concentration at 15 min [3]: ~1000 nM | free plasma concentration relative to the D3 EC50 (anaesthetised dog [4]; at 3000 μg/kg, emesis study): approximately 270 fold | dose at which emesis was observed (anaesthetised dog [4]; s.c., escalating doses 3-3000 μg kg^−1): > 3 mg/kg | penile intracavernosal pressure and cavernosal blood flow in male rabbits (New Zealand rabbits): beneficially enhanced | vaginal and clitoral blood flow in female rabbits (New Zealand rabbits): beneficially enhanced
